The nature of the data set: gradient 5% acetonitrile 3 min, to 50% in 2 min, to 85% in 15 min, held 3 min, 100 µL/min. To be noted: column: Zorbax Extend-C18 2.1 x 50 mm; eluents: water / acetonitrile, 0.1% formic acid. The gist of the method:
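Over 3 months, pure standards in mixtures of ~100 molecules were run by HPLC coupled to a quadrupole time-of-flight mass spectrometer in positive and negative ionization mode. The column was a Zorbax Extend-C18 (2.1 × 50 mm, 1.8 μm) at 100 μL/min, eluted with water and acetonitrile each holding 0.1% formic acid, with 40 μL dead and 900 μL dwell volumes. Retention time was determined from adduct peaks chosen by software and checked manually.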
Compound `O=C(NCc1ccc(F)cc1)Nc1cccc(-c2ccc(N3CCOCC3)nn2)c1` gave an RP-LC retention time of 674 s.
`Cc1[nH]c(-c2ccc(Cl)cc2)cc1C(=O)NC1CCCCC1` gave an RP-LC retention time of 990 s.
For the compound `Cc1cc(C)n2c(Nc3ccc(Cl)cc3)c(-c3ccc(Cl)cc3)nc2n1`, the RP-LC retention time amounted to 886 s.
With `CC(C)N1C[C@H](Oc2ccccc2)[C@@H]1C1CCN(S(=O)(=O)c2cccnc2)CC1` the figure was 669 s; with `CSc1ccc(NC(=O)c2cc3c(s2)CN(C2CC2)C3)cc1`, 644 s.
The compound `CN1C(=O)[C@H]2CN(Cc3ccc(F)c(F)c3)C[C@H]2C1=O` displayed an RP-LC retention time of 590 s.
Under `CCc1cccc(C)c1Nc1c(-c2cccc(O)c2)nc2ncccn12` stands 730 s; under `CCOc1ccc(N2CCn3c2nc2c3c(=O)n(CC(=O)O)c(=O)n2C)cc1`, 689 s; under `COc1ccc(-c2nnc(-c3ccc(C)c(S(=O)(=O)N4CCC(C(=O)O)CC4)c3)o2)cc1OC`, 785 s.
Under `O=C1C2ON(c3ccccc3)C(c3ccccn3)C2C(=O)N1c1cccc(C(F)(F)F)c1` (stereo not given) stands 994 s; under `COc1ccc(-c2cc(N3CCC(NC(=O)c4ccc(F)cc4F)C3)n[nH]2)cc1` (stereo not given), 696 s.
With `COc1cccc(C(=O)N2CCC(Oc3nc4c(C)ccc(C)c4s3)CC2)c1OC` the figure was 1220 s; with `O=C(Nc1ccc(F)cc1F)N1CCC(n2cnc3c(Cl)cccc3c2=O)CC1`, 806 s; with `CN1CCN(C(c2cccnc2)c2c(NC(=O)c3ccco3)sc3c2CCCC3)CC1` (stereo not given), 611 s.
Compound `CCN1C(=O)c2cccnc2Sc2cc(CNC(=O)c3cc(OC)cc(OC)c3)ccc21` came in with an RP-LC retention time of 777 s.
`CCCNC(=O)N1N=C(c2ccc(N)cc2)c2cc3c(cc2C1C)OCO3` (stereo not given) showed an RP-LC retention time of 854 s.
With `COc1ccc(OC)c(NC(=O)N2CCC(N3CCN(Cc4ccccc4)C(=O)C3=O)CC2)c1` the figure was 746 s; with `O=C(NCCc1csc(-c2ccc(F)cc2)n1)c1cccs1`, 913 s; with `Cc1ccc2oc(-c3noc(C(=O)NCc4cccs4)n3)c(C)c2c1`, 1150 s.
The compound `COc1cccc(C2OC(c3cccc(Cn4cccn4)c3)=NN2C(C)=O)c1OC(C)=O` (stereo not given) yielded an RP-LC retention time of 832 s.
With `COc1cccc(NC(=O)Nc2nccn(-c3ccc(F)c(F)c3)c2=O)c1` the figure was 927 s; with `Fc1ccc(Cc2nc(-c3ccc4nncn4c3)no2)cc1`, 770 s.
Under `Cc1cc2c(cc1S(=O)(=O)N1CCCC1C(=O)NC1CCCCCCC1)OCC(=O)N2` (stereo not given) stands 834 s; under `COC(=O)c1ccccc1NC(=O)Cn1cccc(-c2nc(-c3ccc(Cl)cc3)no2)c1=O`, 1070 s.
Under `O=C(NC1CC1)c1ccc(OCC2CCN(C(=O)Cc3ccccc3Cl)CC2)cc1` stands 868 s; under `COc1cccc(NC(=O)N2CCc3nc[nH]c3C2)c1`, 554 s.
In the case of `CC(C)CNC(=O)NC(C(=O)N1CCc2ccccc21)c1ccccc1` (stereo not given), the RP-LC retention time was 864 s.
With `CCN1C(=O)c2cc(C(=O)NCc3ccccc3Cl)nn2CC1(C)C(=O)NC1CCCC1` (stereo not given) the figure was 817 s; with `CCOCCCNC(=O)N1CC(c2nc(C)no2)C2(CCOCC2)C1` (stereo not given), 616 s; with `COCCOCc1nc(C2CCCN2S(=O)(=O)c2cc(F)ccc2F)no1` (stereo not given), 830 s.
With `CCOC(=O)c1cc(S(=O)(=O)N2CCN(c3cccc(C)c3)C(C)C2)c(C)n1C` (stereo not given) the figure was 1090 s.
Under `COC(=O)c1ccc(C(=O)Nc2nc3c(s2)CCc2ccccc2-3)cc1` stands 1120 s; under `CCCCOc1ccc(NC(=O)c2cc(=O)c3cc(Cl)ccc3o2)c2cccnc12`, 787 s.
For the compound `O=C(Cn1c(CN2CCCCCC2)nc2ccccc21)N1CCCCCC1`, the RP-LC retention time was determined as 678 s.
Under `O=C(CCn1cnc2cc(-c3noc(-c4cccs4)n3)ccc21)N1CCOCC1` stands 672 s; under `O=C(NCCc1ccccc1)Nc1ccc(-c2nc(-c3ccccc3)co2)cc1`, 1080 s.
With `COc1ccc(C2c3c(oc4ccc(Br)cc4c3=O)C(=O)N2C)cc1OC` (stereo not given) the figure was 774 s; with `O=C(COc1ccc(Cl)cc1)Nc1ccc(-c2cn3c(n2)SCC3)cc1`, 627 s; with `O=C(CC1CCCN(c2cn[nH]c(=O)c2)C1)N1CCSCC1` (stereo not given), 617 s.
Under `CCNC(=O)N(C)Cc1ccc(C)s1` stands 722 s.
As to `O=C1NCCCn2cc(S(=O)(=O)N3CCN(c4cccc(Cl)c4)CC3)cc21`, the RP-LC retention time was determined as 804 s.
Under `Cn1c(C2CCN(C(=O)c3ccc(Cl)cc3)C2)nc2ccncc21` (stereo not given) stands 540 s; under `CCOc1ccc(N2CCCCn3c2nc2c3c(=O)n(CCC(C)C)c(=O)n2C)cc1`, 1150 s; under `Cn1c(=O)c(N2CCCC(C(=O)NCCCN3CCC(N4CCCCC4)CC3)C2)nc2cccnc21` (stereo not given), 568 s.
Under `O=C(NCc1ccccc1Cl)C1CCCN(C(=O)c2cc(-c3ccccn3)n[nH]2)C1` (stereo not given) stands 680 s; under `Cc1ccc2c(=O)c3c([nH]c2c1C)CCN(CC(=O)Nc1ccccc1Cl)C3`, 640 s; under `COCCN1CCn2cc(S(=O)(=O)Nc3ccc(F)c(F)c3)cc2C1=O`, 733 s.
As to `COc1cccc(-c2csc(Nc3ccc(Br)cn3)n2)c1`, the RP-LC retention time amounted to 1170 s.
As for `Cc1ccc(N2CCN(C(=O)c3csc(C(=O)NC4CC4)n3)CC2)cc1`, the RP-LC retention time is 800 s.
On to `CCn1ccc(-c2nc(CCS(=O)(=O)c3ccccc3)no2)n1`, for which the RP-LC retention time was found to be 768 s.
With `Cc1ccc(Cl)cc1NC(=O)Cn1c(C)nc2c(sc3nc(-c4ccccc4)ccc32)c1=O` the figure was 1140 s; with `CN(C)[C@@H]1CN(Cc2ccc(Br)o2)CC[C@@H]1CNC(=O)C1CC1`, 574 s.
As to `Cn1c(=O)n(CC(=O)O)c(=O)c2c1nc1n2CCN1c1ccc(F)cc1`, the RP-LC retention time was 704 s.
Under `CN(C)c1ccc(CNC(=O)C2(c3ccc(NS(C)(=O)=O)cc3)CCCCC2)cc1` stands 672 s; under `Cc1ccc(C)c(-c2nnc(NC(=O)c3ccccc3[N+](=O)[O-])o2)c1`, 798 s; under `CC(C)CN1C(=O)c2cccn2CC1C(=O)NCC1CC1` (stereo not given), 731 s.
For `O=C(Nc1ccc2c(c1)CCC2)Nc1cccn2ncnc12`, the RP-LC retention time was determined as 891 s.
For `CC(C)NC(=O)c1ccc2c(c1)CCCN2S(=O)(=O)c1ccccc1`, the RP-LC retention time amounted to 878 s.
With `Cc1ccc(N2CC(c3noc(-c4cccn4C)n3)CC2=O)cc1` (stereo not given) the figure was 611 s; with `Cc1ccc(-c2nnc(-c3ccccc3Cl)o2)cc1S(=O)(=O)N(C)C`, 999 s; with `CCCC(=O)NCCn1c(=O)n(Cc2cccc(C)c2)c2cccnc21`, 759 s.
With `Cn1nc(-c2nc(C3CC3)no2)c2c1CCN(C(=O)c1ccc(F)c(F)c1)C2` the figure was 831 s; with `CCN(CC)C(=O)c1cc2c(s1)CCC(C(=O)Nc1ccc(N3CCOCC3)cc1)C2` (stereo not given), 767 s; with `CCn1cc(-c2nc(CC(=O)NCc3ccc(C)o3)cs2)c2cccnc21`, 912 s.
Under `CC(C)NC(=O)c1ccc(OCC2CCN(C(=O)c3ccc(Br)o3)CC2)cc1` stands 878 s.
`Cc1ccc(C(C)NC(=O)C2CCN(c3ccc4nncn4n3)CC2)cc1` (stereo not given) gave an RP-LC retention time of 736 s.
As for `CCN1c2cc(Cl)ccc2C(=O)NC12CCN(C(=O)NCc1ccc(C)cc1)CC2`, the RP-LC retention time amounted to 888 s.
In turn, `Cc1ccc(/C=C/S(=O)(=O)NCCn2nc(-c3cccnc3)ccc2=O)cc1` returned an RP-LC retention time of 638 s.
`COC(=O)c1cccc(NC(=O)N2CCC(c3nc(C(=O)N(C)C)c(C)o3)CC2)c1` yielded an RP-LC retention time of 972 s.
With `O=C(NCCc1csc(-c2cccs2)n1)C1CCN(S(=O)(=O)Cc2ccccc2)CC1` the figure was 855 s.
Under `O=C(CCc1nc(-c2ccc(N3CCCC3)cc2)no1)Nc1ccc2c(c1)OCCO2` stands 1010 s; under `COCC1(O)CCOC2(CCN(Cc3ccc(F)cc3Cl)CC2)C1` (stereo not given), 563 s.
On to `O=C(Nc1cccn2cnnc12)c1ccccn1`, for which the RP-LC retention time was 652 s.
Under `CN(CC1CCOCC1)C(=O)Nc1cc(F)c(F)c(F)c1` stands 804 s; under `CCC(Oc1ccc(=O)n(-c2cc(Cl)ccc2C)n1)C(=O)NCCOC` (stereo not given), 698 s.
With `COCc1c(C(=O)O)nnn1Cc1ccccc1C` the figure was 714 s.
Under `Cc1cnc(C)n1C1CCN(C(=O)c2cccn2C)C1` (stereo not given) stands 580 s.
The compound `CC(C)Cn1cc(S(=O)(=O)NCc2cccc(Cl)c2)c2cccnc21` gave an RP-LC retention time of 1020 s.
Consider `CCOC(=O)c1c(C)[nH]c(CCC(=O)NC(C)C)c1C`, for which the RP-LC retention time was determined as 729 s.
With `Cc1cc(C)cc(NC(=O)COc2cc(C)nc(N3CCN(c4ccccc4)CC3)n2)c1` the figure was 915 s.

(Values after the METLIN SMRT retention time set (Domingo-Almenara et al. 2019).)
